Laboratory results reported in US20160362416A1, “ANTIVIRAL COMPOUNDS” (Gilead Sciences, Inc., priority 2012, published 2016).

How the values were obtained:
[1] = test system: stable HCV 1a RLuc replicon cells (genotype 1a H77 replicon); assay: HCV genotype 1a RLuc replicon reporter assay; format: cell-based; conditions: Hepatitis C virus; stable genotype 1a H77 RLuc replicon cells, 72 hours
Method: (§1) Evaluation of cell-based anti-HCV activity: Antiviral potency (EC50) was determined using a Renilla luciferase (RLuc)-based HCV replicon reporter assay. To perform the assay for genotype 1 and 2a JFH-1, stable HCV 1a RLuc replicon cells (harboring a dicistronic genotype 1a H77 replicon that encodes a RLuc reporter), stable HCV lb RLuc replicon cells (harboring a dicistronic genotype 1b Conl replicon that encodes a RLuc reporter), or stable HCV 2a JFH-1 Rluc replicon cells (harboring a dicistronic genotype 2a JFH-1 replicon that encodes a RLuc reporter; with L31 present in NS5A) were dispensed into 384-well plates for EC50 assays. To perform the assay for genotype 2a (with M31 present in NS5A) or 2b, NS5A chimeric genotype 2a JFH-1 replicons that encodes a RLuc-Neo reporter and either genotype 2a J6 strain NS5A gene or genotype 2b MD2b-1 strain NS5A gene (both with M31 present) respectively, were either transiently transfected (t) into Huh-Lunet cells or were established as stably replicating replicon cells (s) is provided. Either cells were dispensed into 384-well plates for EC50 assays. To perform the assay for genotype 3 and 4, NS5A chimeric genotype 1b Conl replicons that encodes a Pi-RLuc reporter and either genotype 3a S52 strain NS5A gene or genotype 4a ED43 strain NS5A gene respectively, were transiently transfected (t) into Huh-Lunet cells, which were subsequently dispensed into 384-well plates. Compounds were dissolved in DMSO at a concentration of 10 mM and diluted in DMSO either manually or using an automated pipeting instrument. Serially 3-fold diluted compounds were either manually mixed with cell culture media and added to the seeded cells or directly added to the cells using an automated instrument. DMSO was used as a negative (solvent; no inhibition) control, and the protease inhibitor ITMN-191 was included at a concentration >100×EC50 as a positive control. 72 hours later, cells were lysed and Renilla luciferase activity quantified as recommended by the manufacturer (Promega-Madison, Wis.). Non-linear regression was performed to calculate EC50 values.

[2] = test system: NS5A chimeric genotype 2a JFH-1 replicon with genotype 2b MD2b-1 strain NS5A gene (M31); assay: HCV genotype 2b NS5A chimeric replicon assay, stable (s); format: cell-based; conditions: Hepatitis C virus, 72 h, read-out: 2b (s) (nM)
Method: as §1

[3] = test system: Y93N in genotype 1a NS5A replicon; assay: Resistance mutant replicon assay, genotype 1a NS5A Y93N; format: cell-based, HCV; conditions: Hepatitis C virus, read-out: 1a Y93N (nM)
Method: as §1
(§2) To determine the antiviral potency (EC50) against resistance mutants, resistance mutations, including M28T, Q30R, Q30H, Q30E, L31M, Y93C, Y93H, and Y93N in genotype 1a NS5A, Y93H and L31V/Y93H in genotype 1b NS5A, and Y93H for in genotype 3a NS5A, were introduced individually into either 1a Pi-Rluc or 1b Pi-Rluc replicons by site directed mutagenesis. Replicon RNA of each resistant mutant was transiently transfected into Huh-7-derived cured-51 cells and antiviral potency was determined on these transfected cells as described above.

[4] = test system: NS5A chimeric genotype 1b Con1 replicon with genotype 4a ED43 strain NS5A gene; assay: HCV genotype 4a NS5A chimeric replicon assay; format: cell-based; conditions: Hepatitis C virus, 72 h, read-out: 4a (s) (nM)
Method: as §1, with “[…],” for “were transiently transfected (t) into Huh-Lunet cells,”

[5] = test system: stable HCV 2a JFH-1 Rluc replicon cells (L31 present in NS5A); assay: HCV genotype 2a JFH-1 RLuc replicon reporter assay; format: cell-based; conditions: Hepatitis C virus, 72 h, read-out: 2a JFH (nM)
Method: as §1

[6] = test system: stable HCV 1b RLuc replicon cells (genotype 1b Con1 replicon); assay: HCV genotype 1b RLuc replicon reporter assay; format: cell-based; conditions: Hepatitis C virus; stable genotype 1b Con1 RLuc replicon cells, 72 hours
Method: as §1

[7] = test system: NS5A chimeric genotype 1b Con1 replicon with genotype 3a S52 strain NS5A gene; assay: HCV genotype 3a NS5A chimeric replicon assay; format: cell-based; conditions: Hepatitis C virus, 72 h, read-out: 3a (nM)
Method: as §1

[8] = test system: Y93H in genotype 1a NS5A replicon; assay: Resistance mutant replicon assay, genotype 1a NS5A Y93H; format: cell-based, HCV; conditions: Hepatitis C virus, read-out: 1a Y93H (nM)
Method: as §1, §2

[9] = test system: Y93H in genotype 3a NS5A replicon; assay: Resistance mutant replicon assay, genotype 3a NS5A Y93H; format: cell-based, HCV; conditions: Hepatitis C virus, read-out: 3a Y93H (nM)
Method: as §1, §2

[10] = test system: NS5A chimeric genotype 2a JFH-1 replicon with genotype 2a J6 strain NS5A gene (M31); assay: HCV genotype 2a J6 NS5A chimeric replicon assay, transient (t); format: cell-based; conditions: Hepatitis C virus, 72 h, read-out: 2a J6 (t) (nM)
Method: as §1

Row | SMILES | EC50 [1] [nM] | EC50 [2] [nM] | EC50 [3] [nM] | EC50 [4] [nM] | EC50 [5] [nM] | EC50 [6] [nM] | EC50 [7] [nM] | EC50 [8] [nM] | EC50 [9] [nM] | EC50 [10] [nM]
1 | COC(=O)N[C@H](C(=O)N1[C@H](c2ncc(-c3ccc4c(c3)COc3cc5c(ccc6nc([C@@H]7C[C@H](C)[C@H](C)N7C(=O)[C@@H](NC(=O)OC)C7C[C@@H](C)O[C@H](C)C7)[nH]c65)cc3-4)[nH]2)C[C@H](C)[C@@H]1C)C1C[C@@H](C)O[C@H](C)C1 (stereo partly drawn) [Example AZ, Methyl {(1S)-1-[(2R,6R)-2,6-dimethyltetrahydro-2H-pyran-4-yl]-2-[(2S ,3S,5S)-5-(5-{2-[(2S,4S,5S)-1-{(2S)-2-[(2R,6R)-2,6-dimethyltetrahydro-2H-pyran-4-yl]-2-[(methoxycarbonyl)amino]acetyl}-4,5-dimethylpyrrolidin-2-yl]-1,11-dihydroisochromeno[4′,3′:6,7]naphtho[1,2-d]imidazol-9-yl}-1H-imidazol-2-yl)-2,3-dimethylpyrrolidin-1-yl]-2-oxoethyl}carbamate] | 0.021 | 0.024 | 0.059 | 0.013 | 0.01 | 0.031 | 0.025 | 0.025 | 4.52 | 
2 | CC[C@H](C)[C@H](NC(=O)OC)C(=O)N1[C@@H](C)CC[C@H]1c1ncc(-c2ccc3c(c2)COc2cc4c(cc2-3)CCc2nc([C@@H]3CC[C@H](C)N3C(=O)[C@@H](NC(=O)OC)C3C[C@@H](C)O[C@H](C)C3)[nH]c2-4)[nH]1 (stereo partly drawn) [Example BE, methyl{(2S,3S)-1-[(2S,5S)-2-(5-{2-[(2S,5S)-1-{(2S)-2-[(2R,6R)-2,6-dimethyltetrahydro-2H-pyran-4-yl]-2-[(methoxycarbonyl)amino]acetyl}-5-methylpyrrolidin-2-yl]-1,4,5,11-tetrahydroisochromeno[4′,3′:6,7]naphtho[1,2-d]imidazol-9-yl}-1H-imidazol-2-yl)-5-methylpyrrolidin-1-yl]-3-methyl-1-oxopentan-2-yl}carbamate] | 0.017 | 0.029 | 1.42 | 0.011 | 0.011 | 0.019 | 0.022 | 0.755 | 2.25 | 
3 | COC(=O)N[C@H](C(=O)N1[C@@H](c2ncc(-c3ccc4c(c3)COc3cc5c(ccc6nc([C@@H]7C[C@H](C)[C@H](C)N7C(=O)[C@@H](NC(=O)OC)C7C[C@@H](C)O[C@H](C)C7)[nH]c65)cc3-4)[nH]2)C[C@@H](C)[C@H]1C)C1C[C@@H](C)O[C@H](C)C1 (stereo partly drawn) [Example BB, Methyl {(1S)-1-[(2R,6R)-2,6-dimethyltetrahydro-2H-pyran-4-yl]-2-[(2R,3R,5R)-5-(5-{2-[(2S,4S,5S)-1-{(2S)-2-[(2R,6R)-2,6-dimethyltetrahydro-2H-pyran-4-yl]-2-[(methoxycarbonyl)amino]acetyl}-4,5-dimethylpyrrolidin-2-yl]-1,11-dihydroisochromeno[4′,3′:6,7]naphtho[1,2-d]imidazol-9-yl}-1H-imidazol-2-yl)-2,3-dimethylpyrrolidin-1-yl]-2-oxoethyl}carbamate] | 3.85 | 10.6 | 29.6 | 2.54 | 2.96 | 0.205 | 10.3 | 20.2 |  | 
4 | COC(=O)N[C@H](C(=O)N1[C@@H](C)CC[C@H]1c1nc2ccc3cc4c(cc3c2[nH]1)OCc1cc(-c2cnc([C@@H]3CC[C@H](C)N3C(=O)[C@@H](NC(=O)OC)C3(C)CCOCC3)[nH]2)ccc1-4)C(C)C [Example AL, Methyl [(2S)-1-{(2S,5S)-2-[9-(2-{(2S,5S)-1-[(2S)-2-[(methoxycarbonyl)amino]-2-(4-methyltetrahydro-2H-pyran-4-yl)acetyl]-5-methylpyrrolidin-2-yl}-1H-imidazol-5-yl)-1,11-dihydroisochromeno[4′,3′:6,7]naphtho[1,2-d]imidazol-2-yl]-5-methylpyrrolidin-1-yl}-3-methyl-1-oxobutan-2-yl]carbamate] | 0.02 | 0.713 |  | 0.028 | 0.026 | 0.03 | 0.086 |  |  | 0.776
5 | COC(=O)N[C@H](C(=O)N1[C@@H](C)CC[C@H]1c1nc2ccc3cc4c(cc3c2[nH]1)OCc1cc(-c2cnc([C@@H]3CC[C@H](C)N3C(=O)[C@H](NC(=O)OC)[C@H]3C[C@@H](C)O[C@@H](C)C3)[nH]2)ccc1-4)C(C)C [Example AP, Methyl {(2S)-1-[(2S,5S)-2-(9-{2-[(2S,5S)-1-{(2R)-2-[(2R,6S)-2,6-dimethyltetrahydro-2H-pyran-4-yl]-2-[(methoxycarbonyl)amino]acetyl}-5-methylpyrrolidin-2-yl]-1H-imidazol-5-yl}-1,11-dihydroisochromeno[4′,3′:6,7]naphtho[1,2-d]imidazol-2-yl)-5-methylpyrrolidin-1-yl]-3-methyl-1-oxobutan-2-yl}carbamate] | 1.52 | 4.44 |  | 1.19 | 1.1 | 0.038 | 4.44 |  |  | 4.44
